{"source": "paper PMC5654082", "about": "(Malaria Journal, 2017)", "key": {"[1]": {"test": "Maximum plasma concentration from in vivo pharmacokinetic studies after therapeutic dosing", "settings": "human, the literature Cmax (ng/mL) of Table 2 expressed in µM", "text": "As Cmax the (geometric) mean or median maximum plasma concentrations obtained from previous in vivo pharmacokinetic studies after therapeutic dosing was used."}, "[2]": {"design": "method as in earlier work", "settings": "unchanged PG; cited from earlier work"}, "[3]": {"target": "T1, human OCT1 (Homo sapiens, UniProt O15245)", "T1 construct": "host or cells: HEK293, baculovirus transduction (CMV promoter), transient", "T1 sequence (O15245 1-554)": "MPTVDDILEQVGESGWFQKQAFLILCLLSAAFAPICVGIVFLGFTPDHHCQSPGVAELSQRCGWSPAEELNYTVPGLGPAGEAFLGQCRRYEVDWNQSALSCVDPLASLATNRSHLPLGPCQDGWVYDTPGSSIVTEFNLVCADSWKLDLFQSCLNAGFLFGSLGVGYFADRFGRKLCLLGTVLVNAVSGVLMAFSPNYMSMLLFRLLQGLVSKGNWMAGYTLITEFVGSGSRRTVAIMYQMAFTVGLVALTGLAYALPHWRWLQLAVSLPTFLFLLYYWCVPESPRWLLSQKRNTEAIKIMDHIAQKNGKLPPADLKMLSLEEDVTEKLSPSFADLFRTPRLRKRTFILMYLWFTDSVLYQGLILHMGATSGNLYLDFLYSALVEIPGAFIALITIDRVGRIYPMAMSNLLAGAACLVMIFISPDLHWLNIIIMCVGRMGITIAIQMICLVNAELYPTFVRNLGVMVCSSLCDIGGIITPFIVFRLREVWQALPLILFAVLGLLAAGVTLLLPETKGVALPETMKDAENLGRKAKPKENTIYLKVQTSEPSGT", "test": "Inhibition of OCT1-mediated ASP uptake in transduced HEK293 cells", "format": "cell-based", "settings": "50 µM anti-malarial, 10 µM ASP, 10 min, 37 °C; relative to solvent control fixed at 100%", "procedure": "HEK293 cells were modified to transiently express (a combination of) human OCT1, OCT2, MATE1, MATE2-K, or eYFP. Briefly, cDNA of the respective genes was cloned downstream of a CMV promoter into a baculovirus, of which passage three was used to transduce HEK293 cells. These cells were seeded in poly-D-lysine coated 24- or 96-wells plates and grown in a 37 °C incubator at 5% CO2. Growth was initiated at ~ 25% confluency using 375 or 125 μL cell and complete medium (DMEM + GlutaMAX™-I supplemented with 10% fetal bovine serum) suspension per well, respectively. After 24 h, cells were transduced with 30 µL virus (10 µL virus + 20 µL complete medium in case of 96-wells plates) or 2 × 15 µL virus for cells that required simultaneous expression of two transporters. Finally, 195 µL sodium butyrate (45 µL for 96-wells plates) was added to a final concentration of 2 mM to enhance protein expression.\nAMO (10 mM), ASP (1 mM), CQ (10 mM), PQ (10 mM) and PG (10 mM) were dissolved in MilliQ water. ART (10 mM), ATO (10 mM), DHA (10 mM), LUM (10 mM), MQ (10 mM), NMQ (20 mM), PYR (10 mM), QN (10 mM) were dissolved in DMSO. All compound stocks were stored at − 20 °C. Inhibition of OCT1- or OCT2-mediated ASP uptake by anti-malarials was performed in poly-D-lysine coated 96-wells plates 2 or 3 days following HEK293 cell transduction. In short, cells were washed with 125 µL 37 °C HBSS containing 10 mM HEPES, pH 7.4. Then, a 50 µL mixture of ASP (10 µM) and anti-malarial compound (25, 50 or 100 µM) in HBSS buffer (pH 7.4) was added to each well and incubated for 10 min at 37 °C. ASP transport was stopped by washing with 125 µL ice-cold HBSS-HEPES buffer supplemented with 0.5% BSA. Following a second wash with 125 µL ice-cold HBSS-HEPES buffer, cells were lysed with 125 µL 1 M NaOH and ASP was excited at a wavelength of 485 nm and fluorescence was detected at an emission wavelength of 535 nm using the Victor X3 multimode plate reader.\nFor each compound, a range of seven concentrations was used to determine the concentration at which ASP uptake was inhibited half maximally (IC50). At least three independent experiments (4 for QN) were performed for each drug in triplicate as described above. Inhibition curves were plotted by nonlinear regression analyses of the data using GraphPad Prism version 5.03. […] To generate the final dose–response inhibition curve per anti-malarial, percentage of uptake was averaged for each drug concentration per experiment and the resulting mean ± SEM corresponding to three or four independent experiments were plotted."}}, "note": "Counter-ions that a name gives are not always drawn.", "data": [{"smiles": "[H]/N=C(\\N/C(=N/[H])Nc1ccc(Cl)cc1)NC(C)C", "note": "[Proguanil, proguanil hydrochloride]", "values": [{"measurement": "Cmax", "setting": "[1]", "result": 1.2, "unit": "µM"}, {"measurement": "Excretion into the urine", "setting": "[2]", "result": "< 40", "unit": "%"}, {"measurement": "Relative ASP uptake (OCT1-mediated)", "setting": "[3]", "result": "60 ± 7", "unit": "%"}]}]}
